The values below come from the NIST ThermoML archive (doi:10.1016/j.fluid.2007.01.038).

Numbers after ± are expanded uncertainties.

As a reminder, the refractive index is the speed of light in vacuum divided by its phase velocity in the sample. For orientation: mass density means the mass of a sample divided by its volume.

The nature of data set [1]: refractive index (Na D-line) (dimensionless). Particulars: 298.15 K; 101.33 kPa; Liquid; Standard Abbe refractometry.
The conditions of data set [2]: Liquid; for mass density: 298.15 K, 101.33 kPa; for Normal boiling temperature: Ebulliometric method (Recirculating still).

For `CCCCOC(C)(C)C` [butane, 1-(1,1-dimethylethoxy)-], the refractive index in data set [1] came to 1.3917 ± 0.00072. Moreover, in data set [2], the mass density came to 757.57 ± 0.26 kg/m3 and the Normal boiling temperature turned out to be 122.50 ± 0.1 °C.
For `CCO` [ethanol], in that order: 1.3592 ± 0.00073, 785.22 ± 0.5 kg/m3 and 78.29 ± 0.1 °C.
In the same order, the values of `CO` [methanol] are 1.3264 ± 0.0007, 786.63 ± 0.5 kg/m3 and 64.4 ± 0.1 °C.
